Source: publication PMC6151435, “Bioactivity In Vitro of Quercetin Glycoside Obtained in Beauveria bassiana Culture and Its Interaction with Liposome Membranes” (Molecules : A Journal of Synthetic Chemistry and Natural …, 2017)
≈ marks a conversion by molar mass, not a printed value. Read-outs that look alike come from different tables or passages of the source.

Key:
[1] = rat, in vivo; cited from earlier work
HSA = conditions: cited from earlier work; for binding constant to HSA: ref [59]
[2] = set-up: method as in Strugała et al. [46]; conditions: ref Strugała et al. [46]; read-out: IC50 AAPH PC (inhibition of AAPH induced oxidation of phosphatidylcholine liposomes); cited from earlier work
[3] = cited from earlier work
[4] = Solubility in water (literature values); assay type: physicochemical; conditions: from cited values

**Q.** Which “absorption, higher compared to quercetin itself” value [1] does the source give for `O=c1c(O[C@@H]2O[C@H](CO)[C@@H](O)[C@H](O)[C@H]2O)c(-c2ccc(O)c(O)c2)oc2cc(O)cc(O)c12` [3-O-glucoside of quercetin] here?
**A.** 184%

**Q.** Which “binding constant to HSA” value (HSA) does the source give for `COc1ccc2c(c1)c(CC(=O)O)c(C)n2C(=O)c1ccc(Cl)cc1` [Indomethacin, indomethacin] here?
**A.** ~489000 M⁻¹

**Q.** Which IC50 [2] does the source give for `O=C1O[C@H]([C@@H](O)CO)C(O)=C1O` [L(+) ascorbic acid, L-(+)-ascorbic acid] here?
**A.** 129 ± 12.4 µM

**Q.** For `CC(=O)Oc1ccccc1C(=O)O` [aspirin], which “binding constant to HSA” value (HSA) is on record?
**A.** approximately 1.4 × 10^4 M^−1

**Q.** What does the source list for `Cc1cnc(NC(=O)C2=C(O)c3ccccc3S(=O)(=O)N2C)s1` [meloxicam]?
**A.** association constant to HSA (HSA; order of magnitude, ref [58]): ~10^5 M^−1; bound to HSA (HSA; ref [58]): more than 99%

**Q.** For `O=C1C[C@@H](c2ccc(O)cc2)Oc2cc(O)cc(O)c21` [naringenin], which solubility ([3]; at 20 °C, ref [9]) is on record?
**A.** 4.38 µg/mL (≈ 16.1 µM)

**Q.** What does the source list for `C[C@@H]1O[C@@H](O[C@H]2[C@H](Oc3cc(O)c4c(c3)O[C@H](c3ccc(O)cc3)CC4=O)O[C@H](CO)[C@@H](O)[C@@H]2O)[C@H](O)[C@H](O)[C@H]1O` [naringin]?
**A.** solubility ([3]; ref [10]): 500 µg/mL (≈ 861 µM); solubility, fold higher than aglycone naringenin [4]: more than 110 fold
